Assays:
Assay type in all cases: cell-based
JAG1 = assay: RNA-seq of JAG1 expression in compound-treated primary human hepatocytes; details: primary human hepatocytes
Protocol: (§1) Human hepatocytes were obtained from two donors from Massachusetts General Hospital, namely MGH54 and MGH63, and one donor from Lonza, namely HUM4111B. Cryopreserved hepatocytes were cultured in plating media for 16 hours, transferred to maintenance media for 4 hours. Cultured on serum-free media for 2 hours, then a compound was added. The hepatocytes were maintained on the serum-free media for 16 hours prior to gene expression analysis. Primary human hepatocytes were stored in the vapor phase of a liquid nitrogen freezer (about -130° C.). Human hepatocytes cultured as described above were plated in 24-well format, adding 375,000 cells per well in a volume of 500 ul plating medium. Four hours before treatment, cells were washed with PBS and the medium was changed to either: fresh maintenance medium (complete) or modified maintenance medium. Compound stocks were prepared at 1000× final concentration and added in a 2-step dilution to the medium to reduce risk of a compound precipitating out of solution when added to the cells, and to ensure reasonable pipetting volumes. […] The plate was mixed by carefully swirling and after all wells were treated and returned to the incubator overnight. If desired, separate plates/wells were treated with vehicle-only controls and/or positive controls. If using multi-well plates, controls were included on each plate. After about 18 hours, cells were harvested for further analysis, e.g., ChIP-seq, RNA-seq, ATAC-seq, etc. This protocol is a modified version of the following protocols: MagMAX mirVana Total RNA Isolation Kit User Guide (Applied Biosystems #MAN0011131 Rev B.0), NEBNext Poly(A) mRNA Magnetic Isolation Module ([…]), and NEBNext Ultra Directional RNA Library Prep Kit for Illumina ([…]) (New England Biosystems #E74901). […] Two hundred μl of Lysis Binding Mix was used per well of the multiwell plate containing adherent cells (usually a 24-well plate). For mRNA isolation and library prep, the NEBNext Poly(A) mRNA Magnetic Isolation Module and Directional Prep kit was used. RNA isolated from cells above was quantified, and prepared in […] of each sample in 50 μl of nuclease-free water. This protocol may be run in microfuge tubes or in a 96-well plate. […] Genomic alignments were converted to transcriptome alignments based on reference transcript annotations from the Human GENCODE Gene Set release 24 (Harrow et al., Genome Res. […] Standard QC were applied (read integrity, mapping statistics, library complexity, fragment bias) to remove unsatisfactory samples. Differential gene expression was computed using the negative binomial model implemented by DESeq2 version 1.16.1 (Love et al., Genome Biol. (2014) 15(12):550). […] RNA-seq signals were also normalized by read depth and visualized using the UCSC browser. To identify small molecules that modulate target gene expression, primary human hepatocytes were prepared as a monoculture, and at least one small molecule compound was applied to the cells. RNA-seq was performed to determine the effects of the compounds on the expression of the target genes in hepatocytes. Fold change was calculated by dividing the level of expression in the cell system that had been perturbed by the level of expression in an unperturbed system.

NOTCH2 = assay: RNA-seq of NOTCH2 expression in compound-treated primary human hepatocytes
Protocol: as §1

LECT2 = assay: RNA-seq of LECT2 expression in compound-treated primary human hepatocytes
Protocol: (§2) Human hepatocytes were obtained from two donors from Massachusetts General Hospital, namely MGH54 and MGH63, and one donor from Lonza, namely HUM4111B. Cryopreserved hepatocytes were cultured in plating media for 16 hours, transferred to maintenance media for 4 hours. Cultured on serum-free media for 2 hours, then a compound was added. The hepatocytes were maintained on the serum-free media for 16 hours prior to gene expression analysis. Primary human hepatocytes were stored in the vapor phase of a liquid nitrogen freezer (about −130° C.).
(§3) Human hepatocytes cultured as described above were plated in 24-well format, adding 375,000 cells per well in a volume of 500 ul plating medium. Four hours before treatment, cells were washed with PBS and the medium was changed to either: fresh maintenance medium (complete) or modified maintenance medium.
(§4) Compound stocks were prepared at 1000× final concentration and added in a 2-step dilution to the medium to reduce risk of a compound precipitating out of solution when added to the cells, and to ensure reasonable pipetting volumes. One at a time, each compound was first diluted 10-fold in warm (about 37° C.) modified maintenance medium (initial dilution=ID), mixed by vortexing, and the ID was diluted 100-fold into the cell culture (e.g. 5.1 ul into 1 well of a 24-well plate containing 0.5 mL medium). The plate was mixed by carefully swirling and after all wells were treated and returned to the incubator overnight. If desired, separate plates/wells were treated with vehicle-only controls and/or positive controls. If using multi-well plates, controls were included on each plate. After about 18 hours, cells were harvested for further analysis, e.g., ChIP-seq, RNA-seq, ATAC-seq, etc.
(§5) This protocol is a modified version of the following protocols: MagMAX mirVana Total RNA Isolation Kit User Guide (Applied Biosystems #MAN0011131 Rev B.0), NEBNext Poly(A) mRNA Magnetic Isolation Module (E7490), and NEBNext Ultra Directional RNA Library Prep Kit for Illumina (E7420) (New England Biosystems #E74901).
(§6) The MagMAX mirVana kit instructions (the section titled “Isolate RNA from cells” on pages 14-17) were used for isolation of total RNA from cells in culture. Two hundred μl of Lysis Binding Mix was used per well of the multiwell plate containing adherent cells (usually a 24-well plate).
(§7) For mRNA isolation and library prep, the NEBNext Poly(A) mRNA Magnetic Isolation Module and Directional Prep kit was used. RNA isolated from cells above was quantified, and prepared in […] of each sample in 50 μl of nuclease-free water. This protocol may be run in microfuge tubes or in a 96-well plate.
Standard QC were applied (read integrity, mapping statistics, library complexity, fragment bias) to remove unsatisfactory samples. […] Log 2 fold change and significance values were computed using PME count data (with replicates explicitly modeled versus pan-experiment controls), median ratio normalized, using maximum likelihood estimation rather than maximum a posteriori, and disabling the use of Cook's distance cutoff when determining acceptable adjusted p-values. […] RNA-seq signals were also normalized by read depth and visualized using the UCSC browser.
To identify small molecules that modulate target gene expression, primary human hepatocytes were prepared as a monoculture, and at least one small molecule compound was applied to the cells.
RNA-seq was performed to determine the effects of the compounds on the expression of the target genes in hepatocytes. Fold change was calculated by dividing the level of expression in the cell system that had been perturbed by the level of expression in an unperturbed system. Changes in expression having a p-value ≤0.05 were considered significant.
Significance was defined as an FPKM ≥1, a log 2(fold change) ≥0.5, and a q-value of ≤0.05 for all targets except for CPOX.

SERPINC1 mRNA [1] = assay: Quantitative PCR of SERPINC1 mRNA in primary human hepatocytes (Lonza Hu4282) treated with compounds; details: quantitative PCR; for SERPINC1 mRNA, Lonza Hu4282, 1 uM / SERPINC1 mRNA, Lonza Hu4282, 10 uM: primary human hepatocytes Lonza Hu4282
SERPINC1 mRNA [2] = assay: Quantitative PCR of SERPINC1 mRNA in mouse hepatocytes treated with compounds; details: for SERPINC1 mRNA, Mouse Heps, 1 uM: compound 1 uM; for SERPINC1 mRNA, Mouse Heps, 10 uM: compound 10 uM
Protocol: Samples were amplified using Taqman probes from ThermoFisher.
In some examples, RQ Min and RQ Max values are also reported. RQ Min and RQ Max are the minimum and maximum relative levels of gene expression in the test samples, respectively. They were calculated using the confidence level set in the analysis settings and the confidence level was set to one standard deviation (SD). These values were calculated using standard deviation as follows: […].
Compounds were tested in hepatocytes for upregulation of SERPINC1 mRNA for identification of potential treatments of SERPINC1/AT III deficiency.

ANGPTL3 = assay: RNA-seq of ANGPTL3 expression in compound-treated primary human hepatocytes; details: additional compounds (Table 13), linear fold change
Protocol: as §2, §3, §4, §5, §6, §7
(§8) All pass filter reads from each sample were mapped against the human genome (assembly GRCh38/GCA_000001405.15 “no alt” analysis set merged with hs38d1/GCA_000786075.2) using two pass mapping via STAR version 2.5.3a (alignment parameters alignIntronMin=20; alignIntronMax=1000000; outFilterMismatchNmax=999; outFilterMismatchNoverLmax=0.05; outFilterType=BySJout; outFilterMultimapNmax=20; alignSJoverhangMin=8; alignSJDBoverhangMin=1; alignMatesGapMax=1000000) (Dobin et al., Bioinformatics (2012) 29(1):15-21). Genomic alignments were converted to transcriptome alignments based on reference transcript annotations from the Human GENCODE Gene Set release 24 (Harrow et al., Genome Res. (2012) 22(9): 1760-1774). Using unique and multimapped transcriptomic alignments, gene-level abundance estimates were computed using RSEM version 1.3.0 (Li and Dewey, BMC Bioinformatics (2011) 12:323) in a strand-aware manner, and including confidence interval sampling calculations, to arrive at posterior mean estimates (PME) of abundances (counts and normalized FPKM—fragments per kilobase of exon per million mapped fragments) from the underlying Bayesian model. Standard QC were applied (read integrity, mapping statistics, library complexity, fragment bias) to remove unsatisfactory samples.

FN1 = assay: RNA-seq of FN1 expression in compound-treated primary human hepatocytes; details: perturbed vs unperturbed, significance FPKM ≥1, log 2(fold change) ≥0.5, q-value ≤0.05
Protocol: as §2, §3, §4, §5, §6, §7, §8

740 Y-P
JAG1 Fold Change (Log2) (JAG1): 0 Log2 | NOTCH2 Fold Change (Log2) (NOTCH2; primary human hepatocytes): 0.66 Log2 | Significant modulation of NOTCH2 (in words) (NOTCH2; summary of Table 6): significantly modulate only NOTCH2 | LECT2 Fold Change (Log2) (LECT2): −0.62 Log2

COc1cc2ncnc(Nc3ccc(Oc4ccccc4)cc3C)c2cc1OC.Cl [APS-2-79]
LECT2 Fold Change (Log2) (LECT2): −0.68 Log2

O=C(Nc1c[nH]nc1-c1nc2ccc(CN3CCOCC3)cc2[nH]1)NC1CC1 [AT9283]
SERPINC1 mRNA, Lonza Hu4282, 1 uM (SERPINC1 mRNA [1]; compound 1 uM): 0.91 | SERPINC1 mRNA, Lonza Hu4282, 10 uM (SERPINC1 mRNA [1]; compound 10 uM): 2.2 | SERPINC1 mRNA, Mouse Heps, 1 uM (SERPINC1 mRNA [2]): 1.11 | SERPINC1 mRNA, Mouse Heps, 10 uM (SERPINC1 mRNA [2]): 1.81

CCNC(=O)Nc1ccc(-c2nc(N3CCOC[C@@H]3C)c3c(n2)C(C)(C)S(=O)(=O)C3)cc1 [CZ415]
SERPINC1 mRNA, H8290, 1 uM (SERPINC1 mRNA [1]; hepatocytes H8290, compound 1 uM): 1.4 | SERPINC1 mRNA, H8290, 10 uM (SERPINC1 mRNA [1]; hepatocytes H8290, compound 10 uM): 2.3 | SERPINC1 mRNA, Lonza Hu4282, 1 uM (SERPINC1 mRNA [1]; compound 1 uM): 1.25 | SERPINC1 mRNA, Lonza Hu4282, 10 uM (SERPINC1 mRNA [1]; compound 10 uM): 1.42 | SERPINC1 mRNA, Mouse Heps, 1 uM (SERPINC1 mRNA [2]): 2.2 | SERPINC1 mRNA, Mouse Heps, 10 uM (SERPINC1 mRNA [2]): 2.5

CCN(CC)CCN(Cc1ccc(-c2ccc(C(F)(F)F)cc2)cc1)C(=O)Cn1c(SCc2ccc(F)cc2)nc(=O)c2c1CCC2 [Darapladib]
LECT2 Fold Change (Log2) (LECT2): −0.55 Log2 | ANGPTL3-LINEAR FOLD CHANGE (ANGPTL3): 0.4569

O=[N+]([O-])c1ccc(Sc2cccc[n+]2[O-])c2nonc12 [NSC228155]
LECT2 Fold Change (Log2) (LECT2): −0.74 Log2

Cc1[nH]c(/C=C2\C(=O)Nc3ccc(S(=O)(=O)Cc4c(Cl)cccc4Cl)cc32)c(C)c1C(=O)N1CCC[C@@H]1CN1CCCC1 [PHA-665752]
FN1 Fold Change (Log2) (FN1): −1.14 Log2

CCCC(=O)O[C@@H]1[C@@H](C)[C@@]2(O)[C@@H](C=C(CO)C[C@]3(O)C(=O)C(C)=C[C@@H]23)[C@@H]2C(C)(C)[C@]12OC(=O)CCC [Phorbol 12,13-dibutyrate]
LECT2 Fold Change (Log2) (LECT2): −0.65 Log2

Source: US20210161997A1, “TREATING DISEASES VIA TARGETED MODULATION OF GENE SIGNALING NETWORKS” (Camp4 Therapeutics Corporation, priority 2018, published 2021)
